Structures can show the parent of a compound that is named as a salt. Where two headings read alike, the source gives them in different places.
System: Acinetobacter baumannii ATCC17961
Test: Antimicrobial susceptibility testing: 90% growth inhibitory concentration (IC90) determination in Iso-Sensitest broth, OD600 growth
Type: cell-based
Conditions: Acinetobacter baumannii, ATCC17961, 16 h
Summary of the method: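 Serial twofold dilution, 10 points, e.g. 50–0.097 μM final; ~5×10^(5) CFU/ml; 35±2° C, 16 h; kinetic OD600 every 20 min; IC90 from log-phase inhibition.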

[1] = strain ATCC 17961, OD600 growth over 16 h, read-out: A. baumannii ATCC 17961 IC90
[2] = read-out: A. baumannii ATCC 17961 IC90 (uM), strain ATCC 17961, OD600 growth over 16 h

Row | Compound | IC90 [1] | IC90 [2]
1 | NCC(=O)N1CCN(C(=O)c2ccc(Nc3nccn4c(-c5c[nH]nc5C(F)(F)F)cnc34)cc2Cl)CC1 [Example 131, 2-amino-1-[4-[2-chloro-4-[[3-[3-(trifluoromethyl)-1H-pyrazol-4-yl]imidazo[1,2-a]pyrazin-8-yl]amino]benzoyl]piperazin-1-yl]ethanone] | 0.117 µM | –
2 | Cc1cc(Nc2nccn3c(-c4c[nH]nc4C(F)(F)F)cnc23)cc(F)c1C(=O)N1CCNCC1 [Example 86, [2-fluoro-6-methyl-4-[[3-[3-(trifluoromethyl)-1H-pyrazol-4-yl]imidazo[1,2-a]pyrazin-8-yl]amino]phenyl]-piperazin-1-ylmethanone] | 3.38 µM | –
3 | CCc1cc(Nc2nccn3c(-c4c[nH]nc4C(F)(F)F)cnc23)ccc1C(=O)NCCNC(=O)NCCN [Example 218, N-[2-(2-aminoethylcarbamoylamino)ethyl]-2-ethyl-4-[[3-[3-(trifluoromethyl)-1H-pyrazol-4-yl]imidazo[1,2-a]pyrazin-8-yl]amino]benzamide formate] | – | 0.574 µM
4 | O=C(c1ccc(Nc2nccn3c(-c4cn(CC(F)F)nc4C(F)(F)F)cnc23)cc1Cl)N1CCN(C(=O)[C@@H]2CCCN2)CC1 [Example 115, [2-chloro-4-[[3-[1-(2,2-difluoroethyl)-3-(trifluoromethyl)pyrazol-4-yl]imidazo[1,2-a]pyrazin-8-yl]amino]phenyl]-[4-[(2S)-pyrrolidine-2-carbonyl]piperazin-1-yl]methanone] | 0.251 µM | –
5 | C#CCn1cc(-c2cnc3c(Nc4ccc(C(=O)N5CCN(C(=O)[C@H](N)C(C)C)CC5)c(CC)c4)nccn23)c(C(F)F)n1 [Example 773, (R)-2-amino-1-(4-(4-((3-(3-(difluoromethyl)-1-(prop-2-yn-1-yl)-1H-pyrazol-4-yl)imidazo[1,2-a]pyrazin-8-yl)amino)-2-ethylbenzoyl)piperazin-1-yl)-3-methylbutan-1-one] | 0.978 µM | –
6 | Cc1cc(Nc2nccn3c(-c4cn(CCF)nc4C(F)(F)F)cnc23)cc(F)c1C(=O)N1CCN(C(=O)[C@H]2CC[C@H](O)N2)CC1 [Example 714, (4-(2-fluoro-4-((3-(1-(2-fluoroethyl)-3-(trifluoromethyl)-1H-pyrazol-4-yl)imidazo[1,2-a]pyrazin-8-yl)amino)-6-methylbenzoyl)piperazin-1-yl)((2R,5S)-5-hydroxypyrrolidin-2-yl)methanone] | 0.422 µM | –
7 | NCCCNC(=O)N1CCN(C(=O)c2ccc(Nc3nccn4c(-c5c[nH]nc5C(F)(F)F)cnc34)cc2Cl)CC1 [Example 390, N-(3-aminopropyl)-4-[2-chloro-4-[[3-[3-(trifluoromethyl)-1H-pyrazol-4-yl]imidazo[1,2-a]pyrazin-8-yl]amino]benzoyl]piperazine-1-carboxamide formate] | – | 0.177 µM
8 | COCCn1cc(-c2cnc3c(Nc4ccc(C(=O)N5CCN(C(=O)CCN)CC5)c(Cl)c4)nccn23)c(C(F)(F)F)n1 [Example 294, 3-amino-1-[4-[2-chloro-4-[[3-[1-(2-methoxyethyl)-3-(trifluoromethyl)pyrazol-4-yl]imidazo[1,2-a]pyrazin-8-yl]amino]benzoyl]piperazin-1-yl]propan-1-one formate] | – | 0.457 µM
9 | CCc1cc(Nc2nccn3c(-c4cn(Cc5nccn5C)nc4C(F)(F)F)cnc23)ccc1C(=O)NCCCNCCCCNCCCN [Example 84, N-[3-[4-(3-aminopropylamino)butylamino]propyl]-2-ethyl-4-[[3-[1-[(1-methylimidazol-2-yl)methyl]-3-(trifluoromethyl)pyrazol-4-yl]imidazo[1,2-a]pyrazin-8-yl]amino]benzamide hydrochloride] | – | 2.98 µM
10 | Cc1cc(Nc2nccn3c(-c4cn(C)nc4C(F)(F)F)cnc23)ccc1C(=O)N1CCN(C(=O)[C@@H]2CCNC[C@@H]2O)CC1 [Example 474, formic acid; [4-[(3R,4R)-3-hydroxypiperidine-4-carbonyl]piperazin-1-yl]-[2-methyl-4-[[3-[1-methyl-3-(trifluoromethyl)pyrazol-4-yl]imidazo[1,2-a]pyrazin-8-yl]amino]phenyl]methanone] | – | 1.34 µM
11 | N#CCn1cc(-c2cnc3c(Nc4ccc(C(=O)NCC(=O)N[C@@H]5CCNC5)c(Cl)c4)nccn23)c(C(F)(F)F)n1 [Example 723, 2-chloro-4-[[3-[1-(cyanomethyl)-3-(trifluoromethyl)pyrazol-4-yl]imidazo[1,2-a]pyrazin-8-yl]amino]-N-[2-oxo-2-[[(3R)-pyrrolidin-3-yl]amino]ethyl]benzamide formate] | – | 0.459 µM

More lines, main results first:

Row | IC90 [1] | Compound | IC90 [2]
12 | 0.84 µM | CCc1cc(Nc2nccn3c(-c4cn(Cc5ccn(CC#N)n5)nc4C(F)(F)F)cnc23)ccc1C(=O)NC [Example 589, 4-((3-(1-((1-(cyanomethyl)-1H-pyrazol-3-yl)methyl)-3-(trifluoromethyl)-1H-pyrazol-4-yl)imidazo[1,2-a]pyrazin-8-yl)amino)-2-ethyl-N-methylbenzamide] | –
13 | 0.256 µM | CCc1cc(Nc2nccn3c(-c4c[nH]nc4C(F)(F)F)cnc23)ccc1C(=O)NCCOC[C@@H](C)N [Example 204, N-[2-[(2R)-2-aminopropoxy]ethyl]-2-ethyl-4-[[3-[3-(trifluoromethyl)-1H-pyrazol-4-yl]imidazo[1,2-a]pyrazin-8-yl]amino]benzamide] | –
14 | 0.957 µM | CCc1cc(Nc2nccn3c(-c4c[nH]nc4C(F)(F)F)cnc23)ccc1C(=O)N1CCC(CN)CC1 [Example 372, [4-(aminomethyl)piperidin-1-yl]-[2-ethyl-4-[[3-[3-(trifluoromethyl)-1H-pyrazol-4-yl]imidazo[1,2-a]pyrazin-8-yl]amino]phenyl]methanone hydrochloride] | –
15 | 0.345 µM | CNC(=O)c1ccc(Nc2nccn3c(-c4cn(Cc5ccncn5)nc4C(F)(F)F)cnc23)cc1Cl [Example 281, 2-chloro-N-methyl-4-[[3-[1-(pyrimidin-4-ylmethyl)-3-(trifluoromethyl)pyrazol-4-yl]imidazo[1,2-a]pyrazin-8-yl]amino]benzamide] | –
16 | 0.211 µM | CCc1cc(Nc2nccn3c(-c4cn(CC#N)nc4C(F)(F)F)cnc23)ccc1C(=O)NCCCCCN [Example 329, N-(5-aminopentyl)-4-[[3-[1-(cyanomethyl)-3-(trifluoromethyl)pyrazol-4-yl]imidazo[1,2-a]pyrazin-8-yl]amino]-2-ethylbenzamide] | –
17 | 0.431 µM | N#CCn1cc(-c2cnc3c(Nc4ccc(C(=O)NC56CC(N)(C5)C6)c(Cl)c4)nccn23)c(C(F)(F)F)n1 [Example 88, N-(3-amino-1-bicyclo[1.1.1]pentanyl)-2-chloro-4-[[3-[1-(cyanomethyl)-3-(trifluoromethyl)pyrazol-4-yl]imidazo[1,2-a]pyrazin-8-yl]amino]benzamide] | –
18 | 0.57 µM | CCc1cc(Nc2nccn3c(-c4c[nH]nc4C(F)(F)F)cnc23)ccc1C(=O)NCC1CCN(CC2CNC2)C1 (stereo not drawn) [Example 827, N-((1-(azetidin-3-ylmethyl)pyrrolidin-3-yl)methyl)-2-ethyl-4-((3-(3-(trifluoromethyl)-1H-pyrazol-4-yl)imidazo[1,2-α]pyrazin-8-yl)amino)benzamide bis(2,2,2-trifluoroacetate)] | –
19 | 0.33 µM | CC1(O)CN(C(=O)c2ccc(Nc3nccn4c(-c5cn(CC#N)nc5C(F)(F)F)cnc34)cc2Cl)C1 [Example 242, 2-[4-[8-[3-chloro-4-(3-hydroxy-3-methylazetidine-1-carbonyl)anilino]imidazo[1,2-a]pyrazin-3-yl]-3-(trifluoromethyl)pyrazol-1-yl]acetonitrile] | –
20 | 2.66 µM | CCc1cc(Nc2nccn3c(-c4c[nH]nc4C(F)(F)F)cnc23)ccc1C(=O)NCCCNCCCCNCCCN [Example 270, N-[3-[4-(3-aminopropylamino)butylamino]propyl]-2-ethyl-4-[[3-[3-(trifluoromethyl)-1H-pyrazol-4-yl]imidazo[1,2-a]pyrazin-8-yl]amino]benzamide] | –
21 | 0.27 µM | N#CCn1cc(-c2cnc3c(Nc4ccc(C(=O)N5CC6(CN(C(=O)CN)C6)C5)c(Cl)c4)nccn23)c(C(F)(F)F)n1 [Example 659, 2-(4-(8-((3-chloro-4-(6-glycyl-2,6-diazaspiro[3.3]heptane-2-carbonyl)phenyl)amino)imidazo[1,2-a]pyrazin-3-yl)-3-(trifluoromethyl)-1H-pyrazol-1-yl)acetonitrile] | –
22 | 0.202 µM | CCc1cc(Nc2nccn3c(-c4cn(CC(F)F)nc4C(F)(F)F)cnc23)ccc1C(=O)N[C@@H](C)CN [Example 57, N-[(2S)-1-aminopropan-2-yl]-4-[[3-[1-(2,2-difluoroethyl)-3-(trifluoromethyl)pyrazol-4-yl]imidazo[1,2-a]pyrazin-8-yl]amino]-2-ethylbenzamide] | –
23 | 0.509 µM | N#CCn1cc(-c2cnc3c(Nc4ccc(C(=O)N5CC(NC(=O)N[C@@H]6CCNC6)C5)c(Cl)c4)nccn23)c(C(F)(F)F)n1 [Example 171, 1-[1-[2-chloro-4-[[3-[1-(cyanomethyl)-3-(trifluoromethyl)pyrazol-4-yl]imidazo[1,2-a]pyrazin-8-yl]amino]benzoyl]azetidin-3-yl]-3-[(3R)-pyrrolidin-3-yl]urea] | –
24 | 0.222 µM | Cc1cc(Nc2nccn3c(-c4cn(CC(F)F)nc4C(F)(F)F)cnc23)ccc1C(=O)NCCOCCN [Example 254, N-[2-(2-aminoethoxy)ethyl]-4-[[3-[1-(2,2-difluoroethyl)-3-(trifluoromethyl)pyrazol-4-yl]imidazo[1,2-a]pyrazin-8-yl]amino]-2-methylbenzamide] | –
25 | 0.162 µM | CCc1cc(Nc2nccn3c(-c4cn(CCF)nc4C(F)(F)F)cnc23)ccc1C(=O)NCCOCC(C)(C)N [Example 54, N-[2-(2-amino-2-methylpropoxy)ethyl]-2-ethyl-4-[[3-[1-(2-fluoroethyl)-3-(trifluoromethyl)pyrazol-4-yl]imidazo[1,2-a]pyrazin-8-yl]amino]benzamide] | –

— patent US20230203043A1, “NOVEL IMIDAZOPYRAZINE DERIVATIVES” (Hoffmann-La Roche Inc., priority 2020, published 2023)
